According to patent US6627227B2, “Use of saw palmetto to prevent atherosclerosis” (priority 2000, dated 2003):

Assays:
[1] = Retrospective chart review of cardiac events in prostate cancer patients on LHRH inhibitors vs controls; format: in vivo; settings: treated patients vs controls
Description: The patients on either Leuprolide or Goserelin were treated with the recommended doses indicated for the treatment of prostatic carcinoma, at either one or three month intervals depending on the preparation used. Leuprolide was dosed at 7.5 mg monthly (single intramuscular injection) or at 22.5 mg at 3 month intervals (single intramuscular injection). Goserelin was dosed at 3.6 mg monthly or at a dose of 10.8 mg at 3 month intervals (subcutaneous injection). The various groups of office patients were evaluated by chart review. In groups 2 and 3 only those on drug for at least one year were considered. Cardiac event is defined either the history of a heart attack or occurrence of coronary artery bypass or angioplasty. In control groups only events occurring in the 3 years prior to the questionnaire are charted.

[2] = Second study: patient questionnaire, cardiac events in patients taking finasteride; format: in vivo; settings: 4 events over 242 patient-years; control 3.5%/yr.
Description: Finasteride was being administered at a dosage of a single oral 5 mg tablet a day. This is the same tablet used in treatment of BPH as disclosed in U.S. Pat. No. 5,175,155 and such dosage applies in the present invention. However, use of a 2 mg or 10 mg oral tablet is contemplated. In the second study patients of the practice were given a questionnaire. Various patients had been treated with finasteride for varying lengths of time. Only those on the drug for at least one year were considered. The average time on finasteride was 3 years. The number of cardiac events occurring in the patients taking finasteride was only 4 events over 242 patient-years. (1.6%/yr.) In the control group 26 events occurred in the 3 years prior over 732 patient-years. (3.5%/yr.) The 45% decrease observed in cardiac events is believed to be significant. (90% Cl equal to 1.4% to 3.7%)

| SMILES | heart attacks compared with controls [1] | cardiac event rate [2] [%/yr.] |
| --- | --- | --- |
| CC(=O)O.CCNC(=O)[C@@H]1CCCN1C(=O)[C@H](CCCNC(=N)N)NC(=O)[C@H](CC(C)C)NC(=O)[C@@H](CC(C)C)NC(=O)[C@H](Cc1ccc(O)cc1)NC(=O)[C@H](CO)NC(=O)[C@H](Cc1c[nH]c2ccccc12)NC(=O)[C@H](Cc1c[nH]cn1)NC(=O)[C@@H]1CCC(=O)N1 [Lupron, 5-oxo-L-prolyl-L-histidyl-L-tryptophyl-L-seryl-L-tyrosyl-D-leucyl-L-leucyl-L-arginyl-N-ethyl-L-prolinamide acetate salt] | fewer heart attacks than controls |  |
| CC(C)C[C@H](NC(=O)[C@@H](COC(C)(C)C)NC(=O)[C@H](Cc1ccc(O)cc1)NC(=O)[C@H](CO)NC(=O)[C@H](Cc1c[nH]c2ccccc12)NC(=O)[C@H](Cc1cnc[nH]1)NC(=O)[C@@H]1CCC(=O)N1)C(=O)N[C@@H](CCCNC(=N)N)C(=O)N1CCC[C@H]1C(=O)NNC(N)=O [Zoladex, pyro-Glu-His-Trp-Ser-Tyr-D-Ser(Bu^t)-Leu-Arg-Pro-Azgly-NH2 acetate] | fewer heart attacks than controls |  |
| CC(C)(C)NC(=O)[C@H]1CC[C@H]2[C@@H]3CC[C@H]4NC(=O)C=C[C@]4(C)[C@H]3CC[C@]12C [finasteride, 4-azaandrost-1-ene-17-carboxamide, N-(1,1-dimethylethyl)-3-oxo-(5a 17B)-] |  | 1.6 |
